Drawing on PubChem BioAssay AID434951 (Broad Institute, 2010), this text covers EC50 for 90 compounds.

pEC50: −log10 of the molar value. Activity calls are given as the source filed them.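 The calls were made as follows: active = a fitted half-maximal concentration EC50 for the rise in nuclear signal no higher than ten times the top dose tested; inconclusive = flat fit with activity between 30% and 70%, or unusable fit; inactive = EC50 beyond ten times the top dose.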

The pEC50 is the EC50 on a negative log10 scale, so that one unit is a factor of ten. The term EC50 denotes the midpoint of the concentration-response curve.

The target in the experiment is Hypoxia-inducible factor 1-alpha (Homo sapiens) (UniProt Q16665). As to the kind of experiment: HIF pathway activation, GFP-HIF1alpha translocation – imaging, fluorescence, U2OS GFP-HIF1alpha, confirmation (AID 434951). The conditions noted are these: U2OS GFP-HIF1alpha nuclear intensity, high-content imaging.
Chain of Hypoxia-inducible factor 1-alpha (Homo sapiens) (Q16665 whole entry, looked up): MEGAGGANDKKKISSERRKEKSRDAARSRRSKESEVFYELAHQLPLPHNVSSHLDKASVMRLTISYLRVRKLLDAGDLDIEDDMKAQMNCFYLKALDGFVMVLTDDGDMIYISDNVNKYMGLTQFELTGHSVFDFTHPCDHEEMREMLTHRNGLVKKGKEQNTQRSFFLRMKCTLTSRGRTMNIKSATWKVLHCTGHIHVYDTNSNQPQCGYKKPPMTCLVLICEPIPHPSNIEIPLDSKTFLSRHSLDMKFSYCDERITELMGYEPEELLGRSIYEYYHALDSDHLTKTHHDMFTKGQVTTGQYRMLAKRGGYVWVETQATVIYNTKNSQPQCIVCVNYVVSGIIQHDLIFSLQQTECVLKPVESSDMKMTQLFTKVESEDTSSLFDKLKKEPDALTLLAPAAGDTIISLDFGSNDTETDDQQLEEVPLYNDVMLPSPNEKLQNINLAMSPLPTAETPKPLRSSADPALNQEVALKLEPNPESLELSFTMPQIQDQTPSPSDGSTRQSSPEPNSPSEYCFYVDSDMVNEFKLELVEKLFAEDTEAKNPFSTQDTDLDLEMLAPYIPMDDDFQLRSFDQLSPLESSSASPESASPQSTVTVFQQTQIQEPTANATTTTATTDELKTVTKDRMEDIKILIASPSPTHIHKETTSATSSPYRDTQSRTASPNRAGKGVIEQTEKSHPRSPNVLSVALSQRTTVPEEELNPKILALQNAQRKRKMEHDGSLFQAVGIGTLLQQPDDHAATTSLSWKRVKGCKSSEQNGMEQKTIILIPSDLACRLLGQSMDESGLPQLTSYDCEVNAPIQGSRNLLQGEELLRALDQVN
`Nc1nonc1-n1nnc(C(=O)N/N=C/c2cc(Br)ccc2O)c1CSC1=NCCS1`: the pEC50 is 4.53.

With `CC(=O)N1CCC(=NNC(=O)c2cc3ccccc3cc2O)CC1`, the EC50 is > 35 µM (inactive).

In the case of `CCOC(=O)c1ccc(S(=O)(=O)NNC(=O)COc2ccccc2C)cc1`, the EC50 was > 35 µM (inactive).

Turning to `Cn1nnc2cc(C(=O)N3CCC(c4ccccc4)C3)ccc21` (stereo not given), the EC50 was > 35 µM (inactive).

Consider `Cc1cc(Nc2ccccc2)cc(=O)n1C`, for which the EC50 is > 35 µM (inactive).

`COc1cccc(C(=O)N/N=C(/c2ccccc2)c2ccccn2)c1`: the negative-log EC50 (pEC50) is 5.22.

For the compound `Cc1ccccc1-n1c(=O)n(Cc2ccc(C(=O)O)cc2)c(=O)c2[nH]cnc21`, the EC50 was > 35 µM (inactive).

In the case of `NC(=S)NNC(=O)c1cc(C(F)(F)F)cc(C(F)(F)F)c1`, the EC50 is > 35 µM (inactive).

On to `Cc1ccnc(NS(=O)(=O)c2cc([N+](=O)[O-])ccc2C)c1`, for which the EC50 is > 35 µM (inactive).

On to `COc1ccc(F)cc1CSc1nnnn1-c1ccc(O)cc1`, for which the EC50 was > 35 µM (inactive).

For `O=C(Nc1ncccc1O)c1ccc(S(=O)(=O)Nc2ccccc2)cc1`, the pEC50 was 5.04.

With `CCN(CC)c1ccc(/C=N/NC(=O)c2cccc(S(=O)(=O)Nc3ccccc3OC)c2)c(O)c1`, the pEC50 was 6.08.

`CC(C)NC(=O)NC(=O)CSc1nnc(-c2ccccc2F)n1N`: the EC50 is > 35 µM (inactive).

Consider `COc1ccc2[nH]c(C(=O)N/N=C/c3ccc(O)cc3O)cc2c1`, for which the pEC50 is 5.06.

With `CCOC(=O)N1CCN(C(=O)c2ccc(Cn3c(=S)[nH]c4cc(OCC)c(OCC)cc4c3=O)cc2)CC1`, the pEC50 was 5.25.

As for `COc1cccc(Nc2n[nH]c(=S)s2)c1`, the EC50 was > 35 µM (inactive).

As to `CCCc1sc(N/N=C/c2ccccn2)nc1-c1ccc(F)cc1`, the pEC50 was 5.22.

Regarding `COc1ccc(/C=C/C(=O)NCCSCc2ccco2)cc1OC`, the EC50 is > 35 µM (inactive).

With `COc1ccc(C(CC(=O)NCc2ccccc2)Sc2n[nH]c(-c3ccccc3)n2)cc1` (stereo not given), the pEC50 is 4.48.

On to `O=[N+]([O-])c1cccnc1N/N=C/c1ccccc1O`, for which the pEC50 is 4.46.

As to `CCCCOc1ccc(C(=O)NCC(=O)OC2CCOC2=O)cc1` (stereo not given), the pEC50 was 4.46.

As to `COC(=O)CNC(=O)CSc1nnc2cc(C)c3ccccc3n12`, the EC50 was > 35 µM (inactive).

For `O=C(CSc1nc2ccccc2c(=O)[nH]1)Nc1ccc(Br)cc1`, the EC50 was > 35 µM (inactive).

`Nc1ccc(C(=O)N/N=C\c2cc(N=Nc3cccc4ccccc34)ccc2O)cc1`: the pEC50 was 4.45.

Turning to `COCCN=c1scc(-c2cc(OC)c(OC)c(OC)c2)n1/N=C/c1c(C)[nH]c2ccccc12`, the EC50 was > 35 µM (inactive).

In the case of `O=C(NCCCN1CCN(c2ccccc2F)CC1)Nc1ccccc1[N+](=O)[O-]`, the EC50 is > 35 µM (inactive).

`N#C/C(=C(/O)c1ccc(F)cc1)c1nc2ccccc2s1`: the EC50 was > 35 µM (inactive).

With `c1cnc(N2CCN(c3ccc4ccccc4n3)CC2)nc1`, the EC50 was > 35 µM (inactive).

Take `Cc1ccc(-n2cc(CN3CCC(CO)(Cc4ccccc4)CC3)cn2)cc1`: the EC50 was > 35 µM (inactive).

Regarding `Cc1sc2cc3c(c(C(=O)c4ccccc4)[n+]2c1C)-c1cccc2cccc-3c12`, the EC50 is > 35 µM (inactive).

As to `COc1ccc(OC)c(CNC(=O)C2CCCN(S(=O)(=O)N3CCC(C)CC3)C2)c1` (stereo not given), the EC50 is > 35 µM (inactive).

With `CN1CCN(Cc2nc3ccccc3c(=O)n2Cc2nc(-c3ccccc3F)cs2)CC1`, the pEC50 is 5.06.

With `CCOc1ccc(CCNC(=O)COC(=O)Cn2nc(C)c([N+](=O)[O-])c2C)cc1OCC`, the EC50 is > 35 µM (inactive).

Regarding `CCn1cc(C(=O)NCC(OC)OC)c(=O)c2cc(S(=O)(=O)N3CCC(C)CC3)ccc21`, the EC50 is > 35 µM (inactive).

As for `COc1ccc(CN(C)CC(=O)Nc2ccc(SC(F)F)cc2)cc1OC`, the EC50 was > 35 µM (inactive).

Take `Cc1c(Cl)c([N+](=O)[O-])nn1Cc1ccc(C(=O)N/N=C\c2cc(Cl)ccc2O)o1`: the pEC50 was 5.03.

Regarding `CC1SC(=NC(=O)c2ccncc2)NC1=O` (stereo not given), the EC50 is > 35 µM (inactive).

For the compound `C=CCN(c1ccccc1)S(=O)(=O)c1cccc(C(=O)Nc2ncccc2O)c1`, the EC50 is > 35 µM (inactive).

Consider `C/C(=N\OCc1nc2ccccc2c(=O)n1/N=C/c1cc(C)cc([N+](=O)[O-])c1O)c1ccccc1`, for which the EC50 is > 35 µM (inactive).

Regarding `Cc1oc(-c2ccc(Cl)cc2)nc1CS(=O)CC(=O)NCCN1CCCCCC1` (stereo not given), the EC50 was > 35 µM (inactive).

With `O=C1CC(Nc2ccccc2)C(=O)N1Cc1ccccc1` (stereo not given), the EC50 was > 35 µM (inactive).

For the compound `COc1ccc(C2CC(c3cccs3)=NN2C(=O)CSc2nc(=O)n3cc(C)ccc3n2)cc1` (stereo not given), the EC50 is > 35 µM (inactive).

For `COc1ccc(C)cc1NC(=O)c1ccc(N(C)S(C)(=O)=O)cc1`, the EC50 was > 35 µM (inactive).

For `COc1ccc(NC(=O)Nc2ccc(CC(=O)O)cc2)cc1`, the EC50 was > 35 µM (inactive).

Regarding `O=Cc1cc(N=Nc2ccccc2Cl)ccc1O`, the EC50 was > 35 µM (inactive).

As to `Cc1ccc(C2(C)NC(=O)N(CC(=O)NC(=O)NC(C)(C)C)C2=O)cc1` (stereo not given), the EC50 was > 35 µM (inactive).

`N#CC(=C=[N-])c1nc2ccccc2nc1-[n+]1cccc(NC(=O)c2ccc(F)cc2)c1`: the EC50 was > 35 µM (inactive).

Turning to `CN(Cc1ccccc1)C(=O)CC(=O)N(C)Cc1ccccc1`, the EC50 was > 35 µM (inactive).

As to `CCN(Cc1ccccc1)C(=O)CCNS(=O)(=O)c1ccc2c(c1)CC(C)N2C(C)=O` (stereo not given), the EC50 is > 35 µM (inactive).

For the compound `CN(CCS(=O)(=O)c1ccc(Cl)cc1)Cc1cccnc1`, the EC50 was > 35 µM (inactive).

With `CCN(CC)c1ccc(/C=N/Nc2nc3ccccc3[nH]2)c(O)c1`, the pEC50 was 5.16.

On to `CCOc1cc(/C=N/NC(=O)c2c(-c3ccccc3)noc2C)ccc1O`, for which the EC50 is > 35 µM (inactive).

In the case of `COC(=O)Nc1nnc(Cc2ccc(OC)cc2)s1`, the EC50 is > 35 µM (inactive).

For the compound `Cn1c(CCNC(=O)c2ccco2)nc2cc(NC(=O)C3CCCCC3)ccc21`, the EC50 was > 35 µM (inactive).

For the compound `CCOC(=O)CNC(=O)CSc1nnc(Cn2cnc3ccccc32)n1C`, the EC50 was > 35 µM (inactive).

`CCc1ccc(NC(=O)CSc2ccc(-c3ccccn3)nn2)cc1`: the pEC50 was 4.98.

As for `Cn1c(=O)cc(C(=O)N/N=C/c2ccc(F)cc2)[nH]c1=O`, the EC50 was > 35 µM (inactive).

Consider `Oc1ccc(Br)cc1/C=N/Nc1ccccn1`, for which the pEC50 was 5.15.

`CCOC(=O)c1c(S(=O)(=O)N2CCC(C)CC2)c(C)n(C)c1C`: the EC50 is > 35 µM (inactive).

Take `C=CCN1C(=O)c2ccccc2Sc2ccc(C(=O)N3CCN(C)CC3)cc21`: the EC50 is > 35 µM (inactive).

As to `C/C(=N\NC(=O)c1cc(-c2cccnc2)nc2ccccc12)c1ccccc1O`, the pEC50 was 4.66.

Turning to `Cc1nc(-n2[nH]c3c(c2=O)CCCC3)[nH]c(=O)c1Cc1ccccc1`, the pEC50 was 5.03.

Take `COC(=O)CCCC1=CC2=CC(=O)C(C)(OC(=O)c3cccs3)C(=O)C2=CN1Cc1ccc2c(c1)OCO2` (stereo not given): the EC50 was > 35 µM (inactive).

As for `O=C(NCCCn1ccnc1)c1cc(-c2ccccc2)on1`, the pEC50 is 5.42.

For `C/C(=N\NC(=O)Cc1ccc(Cl)cc1)c1ccccn1`, the negative-log EC50 (pEC50) is 5.23.

On to `COc1ccc(/C=N/NC(=O)c2cccnc2)cc1CN1CCN(c2ccc(F)cc2)CC1`, for which the EC50 is > 35 µM (inactive).

With `COc1ccc(NC(=O)CCC(=O)N(Cc2ccc(OC)c(OC)c2)c2nccs2)cc1`, the EC50 was > 35 µM (inactive).

On to `O=C(N/N=C(\c1ccccc1)c1ccccn1)c1ccccc1Cl`, for which the pEC50 is 4.95.

On to `Oc1ccccc1C(Nc1nccs1)c1ccc2cccnc2c1O` (stereo not given), for which the negative-log EC50 (pEC50) was 5.18.

Turning to `COc1ccc(CNS(=O)(=O)c2cc3c4c(c2)C(C)C(=O)N4CCC3)cc1` (stereo not given), the EC50 was > 35 µM (inactive).

Turning to `CCOC(=O)C1CCCN(C(=O)c2ccc3oc(CCc4ccccc4)nc3c2)C1` (stereo not given), the EC50 is > 35 µM (inactive).

Regarding `O=C(NCc1ccccc1)C(=O)c1cn(CC(=O)N2CCOCC2)c2ccccc12`, the EC50 was > 35 µM (inactive).

With `O=C(N/N=C(\c1ccccc1)c1ccccn1)c1cccc([N+](=O)[O-])c1`, the pEC50 is 6.20.

On to `Cc1ccc(-c2nnn(CC(=O)N(Cc3cccs3)C(C(=O)NC3CCCCC3)c3ccco3)n2)o1` (stereo not given), for which the pEC50 is 4.48.

As to `O=C1N/C(=C/c2cccs2)C(=O)N1Cc1ccc(Br)cc1`, the EC50 is > 35 µM (inactive).

For the compound `COc1cccc(/C=N/NC(=O)c2[nH]nc3c2CCc2ccccc2-3)c1O`, the pEC50 is 5.71.

Take `C=CCSc1cc(C)nc2c(-c3ccccc3)cnn12`: the EC50 was > 35 µM (inactive).

Turning to `Cc1ccc(C)c(S(=O)(=O)N2CCN(Cc3ccc(O)c4ncccc34)CC2)c1`, the pEC50 is 5.16.

For the compound `CC(=O)NC(c1ccc(C(C)C)cc1)c1ccc2cccnc2c1O` (stereo not given), the pEC50 is 5.87.

For `CCCCOC(=O)c1ccc(NC(=S)NC(=O)c2c(Br)c(C)nn2C)cc1`, the EC50 is > 35 µM (inactive).

Take `Cc1noc(C(=O)Nc2sc3c(c2C#N)CCC3)c1Cl`: the EC50 is > 35 µM (inactive).

Turning to `CCCC(=O)NC(c1ccc(N(C)C)cc1)c1ccc2cccnc2c1O` (stereo not given), the negative-log EC50 (pEC50) was 5.18.

`O=C(NC1CCCC1)c1cc(-c2cccs2)on1`: the pEC50 was 5.14.

Consider `Cc1ccn2c(Nc3ccccc3C)c(-c3ccccn3)nc2c1`, for which the pEC50 is 5.18.

Regarding `CCCN(CCC)C(C)C(=O)NCC1(c2ccccc2)CCCC1` (stereo not given), the EC50 is > 35 µM (inactive).

Turning to `CCOc1ccc(NC(=O)COc2ccccc2)c([N+](=O)[O-])c1`, the EC50 was > 35 µM (inactive).

For the compound `CC1CN/C(=C\C(=O)c2ccc(Br)cc2)C(=O)N1` (stereo not given), the EC50 is > 35 µM (inactive).

With `COc1cnc(-c2ccccn2)nc1N(C)C`, the pEC50 was 5.23.

As to `Cc1ccc(C2(O)CN(c3ccccc3C)C3=[N+]2CCS3)cc1` (stereo not given), the EC50 was > 35 µM (inactive).

On to `O=C(NCc1ccco1)c1cc(-c2cccs2)on1`, for which the pEC50 is 4.46.
